Measured values as given in patent US4731459A, “Novel anti-ulcer agents and quassinoids” (Shionogi & Co., Ltd., priority 1985, dated 1988).
Where two headings read alike, the source gives them in different places.

Columns and labels:
[1] = system: ulcer caused by indomethacin (mucosal lesions in the glandular part of the stomach); experiment: Effect on ulcer caused by indomethacin; type: in vivo, male SD rats; conditions: Rattus norvegicus, ip, read-out: % Inhibition of lesion formation
Experimental: Indomethacin is subcutaneously administered to male SD rats (body weight: 200-220 g) fasted for 24 hours at a dose of 30 mg/kg. The stomachs are excised 7 hours after the administration. The total length of mucosal lesions occurred in the glandular part of the stomach is measured and % inhibition of lesion formation is calculated in comparison with those in the control group. Fifteen minutes before the administration of indomethacin, the test compounds are intraperitoneally administered in a form of aqueous solution.

[2] = Acute Toxicities; conditions: mouse, in vivo, ip; intraperitoneal, aqueous solution; male ddY mice
Text: Male ddY mice (Body weight 25-28 g each) are employed for the acute toxicity test. The test compounds are intraperitoneally administered in a form of aqueous solution.

[3] = 0.3 mg/Kg, intraperitoneal, 15 min before indomethacin 30 mg/kg s.c., male SD rats, 7 hours
[4] = 1.0 mg/Kg, intraperitoneal, 15 min before indomethacin 30 mg/kg s.c., male SD rats, 7 hours
[5] = 3.0 mg/Kg, intraperitoneal, 15 min before indomethacin 30 mg/kg s.c., male SD rats, 7 hours

C=C1[C@@H](O)[C@]2(O)OC[C@]34[C@H]2[C@@]2(C)[C@H](O)C(=O)CC(C)[C@@H]2C[C@H]3OC(=O)[C@H](O)[C@@]14O (single isomer, unassigned) [IIh, 3,4-Dihydroeurycomanone]
inhibition in vivo at 3 mg/kg ([1]; 7 h): -10%

CC1=CC(=O)[C@@H](O)[C@]2(C)[C@H]3[C@@]4(O)OC[C@@]35[C@@H](C[C@@H]12)OC(=O)C[C@H]5[C@]1(CO1)[C@H]4O [IIa, 13α,18-Epoxy-13,18-dihydroailanthone]
inhibition in vivo at 0.3 mg/kg [1, 3]: 36.8%
inhibition in vivo at 1 mg/kg [1, 4]: 77.1%
inhibition in vivo at 3 mg/kg [1, 5]: 100%
LD50 [2]: > 100 mg/kg

CC1=CC(=O)[C@@H](O)[C@]2(C)[C@H]3[C@@]4(O)OC[C@@]35[C@@H](C[C@@H]12)OC(=O)C[C@H]5[C@@]1(CO1)[C@H]4O [IIb, 13β,18-Epoxy-1,3,18-dihydroailanthone]
inhibition in vivo at 3 mg/kg [1, 5]: 74.4%
LD50 [2]: > 30 mg/kg

CC1CC(=O)[C@@H](O)[C@]2(C)[C@H]3[C@@]4(O)OC[C@@]35[C@@H](C[C@@H]12)OC(=O)C[C@H]5C(C)[C@H]4O (stereo partly shown) [IIc, 3,4,13,18-Tetrahydroailanthone]
inhibition in vivo at 3 mg/kg [1, 5]: 13.7%
LD50 [2]: > 30 mg/kg

CC1=CC(=O)[C@@H](O)[C@]2(C)[C@H]3[C@@]4(O)OC[C@@]35[C@@H](C[C@@H]12)OC(=O)C[C@H]5C(C)[C@H]4O (stereo partly shown) [IId, 13,18-dihydroailanthone]
inhibition in vivo at 3 mg/kg ([1]; 7 h): 67.8%
LD50 [2]: > 30 mg/kg

CC1=CC(=O)[C@@H](O)[C@]2(C)[C@H]3[C@@]4(O)OC[C@@]35[C@@H](C[C@@H]12)OC(=O)[C@H](O)[C@@]5(O)[C@]1(CO1)[C@H]4O [IIe, 13α,18-Epoxy-13,18-dihydroeurycomanone]
inhibition in vivo at 3 mg/kg ([1]; 7 h): 4.9%

CC1=CC(=O)[C@@H](O)[C@]2(C)[C@H]3[C@@]4(O)OC[C@@]35[C@@H](C[C@@H]12)OC(=O)[C@H](O)[C@@]5(O)[C@@]1(CO1)[C@H]4O [IIf, 13β,18-Epoxy-13,18-dihydroeurycomanone]
inhibition in vivo at 0.1 mg/kg ([1]; 7 h): 26.4%
inhibition in vivo at 0.3 mg/kg ([1]; 7 h): 71.3%
inhibition in vivo at 1 mg/kg ([1]; 7 h): 92.6%
LD50 [2]: 5.5 mg/kg

CC1=CC(=O)[C@@H](O)[C@]2(C)[C@H]3[C@@]4(O)OC[C@@]35[C@@H](C[C@@H]12)OC(=O)[C@H](O)[C@@]5(O)[C@@H](C)[C@H]4O [IIg-A, 13β,18-Dihydro compound]
inhibition in vivo at 3 mg/kg ([1]; 7 h): 47.1%

CC1=CC(=O)[C@@H](O)[C@]2(C)[C@H]3[C@@]4(O)OC[C@@]35[C@@H](C[C@@H]12)OC(=O)[C@H](O)[C@@]5(O)[C@H](C)[C@H]4O [IIg-B, 13α,18-Dihydro compound]
inhibition in vivo at 3 mg/kg ([1]; 7 h): -3.1%

C=C1[C@@H](O)[C@]2(O)OC[C@]34[C@H]2[C@@]2(C)[C@H](O)C(=O)C=C(C)[C@@H]2C[C@H]3OC(=O)[C@H](O)[C@@]14O [Ib, eurycomanone]
inhibition in vivo at 0.1 mg/kg ([1]; 0.1 mg/Kg, intraperitoneal, 15 min before indomethacin 30 mg/kg s.c., male SD rats, 7 hours): 12.5%
inhibition in vivo at 0.3 mg/kg [1, 3]: 58.5%
inhibition in vivo at 1 mg/kg [1, 4]: 94.7%
LD50 [2]: 18.9 mg/kg
